Experimental data: patent US10590088B2, “4-(benzimidazol-2-ylamino)benzamide derivatives and methods of synthesis thereof” (TRANSLATIONAL DRUG DEVELOPMENT, LLC, priority 2009, dated 2020)

Key:
[1] = tested on: A2780 cells; assay: CellTiter-Blue cell viability assay, single agent, 72 hour treatment, A2780; assay type: cell-based; details: Homo sapiens
Procedure: (§1) Cell viability in the presence of varying concentrations of the above listed compounds at different time points was used to assess cytotoxicity and the effect of the compounds on cell proliferation.
(§2) Cell viability was measured by the CellTiter-Blue® cell viability assay Promega (Madison, Wis.). This procedure measures the conversion of the indicator dye (resazurin) to resorufin, an indicator of cell viability. Following treatment, growth media was removed and cells were incubated with 20 μl of CellTiter-Blue® Reagent and growth media for 1-4 hours at 37° C. Fluorescence values were measured at 535/590 nm using a Beckman-Coulter DTX-880 microplate reader.
(§3) Cells were grown to 70% confluency, trypsinized, counted, and seeded in 96 well flat-bottom plates at a final concentration of 2.5×10^3-5×10^3 cells/well (Day 0). Cells were allowed to incubate in growth media for 24 hours to allow for maximum adhesion. Treatment with the test agents or standard agents began on Day 1 and continued for 72 hours. At the 72 hour timepoint, treatment containing media was removed. Viable cell numbers are quantified by the CellTiter-Blue® cell viability assay as described above. Experiments were repeated at least twice with the same concentrations to determine growth inhibitory activity. Results from these studies were used to calculate an IC50 value (concentration of drug that inhibits cell growth by 50 percent of control) for each compound.
(§4) For single agent and combination studies, data from each experiment was collected and expressed as % Cell Growth using the following calculation: % Cell Growth=(ftest/fvehicle)×100
(§5) Where ftest is the fluorescence of the tested sample, and fvehicle is the fluorescence of the vehicle in which the drug is dissolved. Dose response graphs and IC50 values were generated using Prism 4 software (GraphPad) using the following equation: […]
(§6) Where X is the logarithm of concentration and Y is the response. Y starts at the Bottom and goes to Top with a sigmoid shape.

[2] = tested on: SKOV3 cells; assay: CellTiter-Blue cell viability assay, single agent, 72 hour treatment, SKOV3; assay type: cell-based; details: Homo sapiens, SK-OV-3
Procedure: as §1, §2, §3, §4, §5, §6

[3] = tested on: A2780 human ovarian cells xenograft; assay: In vivo efficacy in human ovarian tumor xenograft model; details: female Ncr nude mice
Procedure: FIG. 1 depicts in vivo efficacy studies of compound #4 (N-hydroxy-4-(1-(2-methoxyethyl)-1H-benzo[d]imidazol-2-ylamino)benzamide) in A2780 xenograft models.
In vivo efficacy of the disclosed compound was tested through a human ovarian tumor xenograft model. Female Ncr nude mice were inoculated with 1×10^7 A2780 human ovarian cells suspended in a mixture of 50% Matrigel and 50% tissue culture media in a total volume of 100 μl. Four days following inoculation, the mice were pair-matched into four groups of 7-8 mice per group at an average tumor weight of 157 mg per group. Group 1 (G1) was treated with vehicle only daily for 14 days. Group 3 (G3) was treated with Compound ID #4 (T062) at 100 mg/kg daily for 14 days. Group 5 (G5) was treated with Doxil at 3 mg/kg on Day 1 only. Group 6 (G6) was treated with Compound ID #4 (T062) at 50 mg/kg (daily for 14 days) plus Doxil at 3 mg/kg on Day 1 only. Group 7 (G7) was treated with Compound ID #4 (T062) at 100 mg/kg (daily for 14 days) plus Doxil at 3 mg/kg on Day 1 only. Vehicle and Compound ID #4 were administered orally via oral gavage while Doxil was administered intravenously via tail injection. Body weights and tumor measurements were collected twice weekly. Tumor width and length were measured in millimeters and converted to tumor weight (in milligrams) using the formula […]=tumor weight (mg.).

Compound	IC50 [1] [µM]	IC50 [2] [µM]	In vivo efficacy (tumor weight) versus Doxil as a single agent ([3]; Group 6: Compound ID #4 50 mg/kg oral daily for 14 days plus Doxil 3 mg/kg i.v. on Day 1 only)	In vivo efficacy (tumor weight) versus Doxil as a single agent ([3]; Group 7: Compound ID #4 100 mg/kg oral daily for 14 days plus Doxil 3 mg/kg i.v. on Day 1 only)
COCCn1c(Nc2ccc(C(=O)NO)cc2)nc2cc(Br)ccc21 [ID 10, 4-(5-bromo-1-(2-methoxyethyl)-1H-benzo[d]imidazol-2-ylamino)-N-hydroxybenzamide]	4.1	6.9		
COCCCn1c(Nc2ccc(C(=O)NO)cc2)nc2ccccc21 [ID 9, N-hydroxy-4-(1-(3-methoxypropyl)-1H-benzo[d]imidazol-2-ylamino)benzamide]	1.9			
O=C(NO)c1ccc(Nc2nc3ccccc3n2CCO)cc1 [ID 11, N-hydroxy-4-(1-(2-hydroxyethyl)-1H-benzo[d]imidazol-2-ylamino)benzamide]	40	34		
COCCn1c(Nc2ccc(C(=O)Nc3ccccc3N)cc2)nc2ccccc21 [ID 20, N-(2-aminophenyl)-4-(1-(2-methoxyethyl)-1H-benzo[d]imidazol-2-ylamino)benzamide]		5.8		
COCCn1c(Nc2ccc(C(=O)NO)cc2)nc2ccc(F)cc21 [ID 21, 4-(6-fluoro-1-(2-methoxyethyl)-1H-benzo[d]imidazol-2-ylamino)-N-hydroxybenzamide]	12.1	17.7		
COCCn1c(Nc2ccc(C(=O)NO)cc2)nc2cc(-c3cncnc3)ccc21 [ID 15, N-hydroxy-4-(1-(2-methoxyethyl)-5-(pyrimidin-5-yl)-1H-benzo[d]imidazol-2-ylamino)benzamide]	16	48		
COCCn1c(Nc2ccc(C(=O)NO)cc2)nc2cc(-c3cccc(F)c3)ccc21 [ID 14, 4-(5-(3-fluorophenyl)-1-(2-methoxyethyl)-1H-benzo[d]imidazol-2-ylamino)-N-hydroxybenzamide]	1.1	0.3		
CN(C)CCn1c(Nc2ccc(C(=O)NO)cc2)nc2cc(Br)ccc21 [ID 17, 4-(5-bromo-1-(2-(dimethylamino)ethyl)-1H-benzo[d]imidazol-2-ylamino)-N-hydroxybenzamide]		8.2		
CC(C)n1c(Nc2ccc(C(=O)NO)cc2)nc2cc(-c3cccnc3)ccc21 [ID 19, N-hydroxy-4-(1-isopropyl-5-(pyridin-3-yl)-1H-benzo[d]imidazol-2-ylamino)benzamide]		8.1		
CC(C)OCCn1c(Nc2ccc(C(=O)NO)cc2)nc2ccccc21 [ID 13, N-hydroxy-4-(1-(2-isopropoxyethyl)-1H-benzo[d]imidazol-2-ylamino)benzamide]	5.1	1.9		
CC(C)n1c(Nc2ccc(C(=O)Nc3ccccc3N)cc2)nc2ccccc21 [ID 1, N-(2-aminophenyl)-4-(1-isopropyl-1H-benzo[d]imidazol-2-ylamino)benzamide]		4.8		
COCCn1c(Nc2ccc(C(=O)NO)cc2)nc2cc(F)ccc21 [ID 12, 4-(5-fluoro-1-(2-methoxyethyl)-1H-benzo[d]imidazol-2-ylamino)-N-hydroxybenzamide]	1.4	0.7		
CC(C)n1c(Nc2ccc(C(=O)NO)cc2)nc2cc(-c3cncnc3)ccc21 [ID 18, N-hydroxy-4-(1-isopropyl-5-(pyrimidin-5-yl)-1H-benzo[d]imidazol-2-ylamino)benzamide]		21		
COCCn1c(Nc2ccc(C(=O)NO)cc2)nc2ccccc21 [ID 4, N-hydroxy-4-(1-(2-methoxyethyl)-1H-benzo[d]imidazol-2-ylamino)benzamide]			improved efficacy over Group 5	improved efficacy over Group 5
COCc1ccc2c(c1)nc(Nc1ccc(C(=O)NO)cc1)n2C(C)C [ID 23, N-hydroxy-4-(1-isopropyl-5-(methoxymethyl)-1H-benzo[d]imidazol-2-ylamino)benzamide]	22	16		
COCCn1c(Nc2ccc(C(=O)NO)cc2)nc2cc(C3CC3)ccc21 [ID 16, 4-(5-cyclopropyl-1-(2-methoxyethyl)-1H-benzo[d]imidazol-2-ylamino)-N-hydroxybenzamide]	15	4.3		
COCCn1c(Nc2ccc(C(=O)NO)cc2)nc2c(F)cccc21 [ID 22, 4-(4-fluoro-1-(2-methoxyethyl)-1H-benzo[d]imidazol-2-ylamino)-N-hydroxybenzamide]	12.1	17.6		
